# Where “and” joins values, the source holds several entries; their conditions need not be identical. Equal entries are not always repeated.
# Key:
# [1] = test system: wireworm of genus Agriotes; assay: Wireworm repellent pot assay on corn in climate chamber; type: in vivo; conditions: climate chamber 18° C. day/12° C. night; eighteen days after sowing
# Experimental: The denatonium benzoate (Bitrex) was tested in concentrations of 0.5 g/unit (wherein 1 unit=50.000 seeds), 1 g/unit and 5 g/unit, either without any other plant protection product (variants 3 and 4) or with RedigoM (active ingredients 100 g/l Prothioconazole (PRO) and 20 g/l Metalaxyl (MTL); (variants 6-8). Sticker was always Sepiret 9290 red, whereby 30 ml/unit has been applied. Variant 1 is the negative control wherein no treatment of the seeds took place, variant 2 is another control only treated with the sticker. Variant 5 is RedigoM and sticker without Bitrex. Variants 9 and 10 serve as positive control. Beside RedigoM and the sticker, the seeds have been treated with either with Force 20 CS (active ingredient: tefluthrin (TEF); or with Poncho® 600 (active ingredient: clothianidin (CLO). Both Force 20 CS and Poncho® 600 are standard treatments against wireworm infestation. All testing were conducted on corn variety Amavit of KWS SAAT SE & Co. KGaA.
# Testing has been repeated in climate chambers in order to ensure high humidity and moderate temperatures which results in optimal environmental condition for the wireworm. Thereby, a high level of insect pressure on the seeded corn should be simulated. […]
# Eighteen days after sowing the plant biomass (Table 6) as well as seed damage (FIG. 4B; Table 6) were assessed.
# [2] = test system: wireworm of genus Agriotes; assay: Wireworm repellent pot assay on corn in greenhouse; type: in vivo; conditions: eight days after sowing
# Experimental: Testing took place in pot assays. Per pot four corn seeds were sown (see FIG. 2A). In each pot four wireworm of genus Agriotes were placed in a central cavity of 5 cm depth (see FIG. 2B). […] The seeds in the pots were germinated and seedlings were grown under controlled conditions in greenhouse.
# Eight days after sowing the plant biomass (FIG. 3; Table 6) as well as seed damage (FIG. 4A; Table 6) were assessed.
# [3] = LC-MS-MS determination of Bitrex in leaf tissue of oilseed rape seedlings; type: in vivo, Brassica napus
# Source text: Further experiments on system uptake of Bitrex have been conducted also on oilseed rape (Brassica napus). Seeds of Brassica napus have been treated with concentration of Bitrex from 0.15 g/unit to 75 g/unit. Seeds have been sown and leaf samples have been taken 6 days after emergence and 22 days after emergence. By means of Liquid Chromatography with tandem mass spectrometry (LC-MS-MS) as described above Bitrex amount in leaf tissue has been determined with 4 repetition per Bitrex concentration. Leave samples have been prepared as follows: Leaf material has been harvested, cut in small pieces and put in 3-5 ml ethanol. After 45 min vortexing, centrifuging and taking aliquot of 1 ml for further analysis.
# [4] = test system: crows; conditions: wheat seed treatment; cited from earlier work
smiles,measurement,setting,value
"CC[N+](CC)(CC(=O)Nc1c(C)cccc1C)Cc1ccccc1.O=C([O-])c1ccccc1 [Bitrex, N-Benzyl-2-(2,6-dimethylanilino)-N, N-diethyl-2-oxoethan-1-aminium benzoate]","effect on development of biomass, seed damages and seedling damages",[1],positive effect
same,biomass of plantlets compared with controls,[2],comparable or even more biomass than control plants without wireworm infestations
same,Bitrex concentation 22 days after emergence,"[3]; oilseed rape leaf, Bitrex 0.15 g/unit, repetitions 1-4",11.03 ng/g and 10.65 ng/g and 5.58 ng/g and 7.75 ng/g
same,Bitrex concentation 6 days after emergence,"[3]; oilseed rape leaf, Bitrex 7.5 g/unit, repetitions 1-4",354.65 ng/g and 194.60 ng/g and 266.85 ng/g and 251.41 ng/g
same,Bitrex in leaf tissue after 22 days,"[3]; oilseed rape, all applications 0.15-75 g/unit",still detectable but at a low amount
same,corvid repellent effect in wheat,[4],only provided a modest improvement
